From US20120121591A1 (priority 2009, published 2012) come the findings set out here.

What all share (type): cell-based
Assay [1] concerns IL-2 secretion from T cells in human whole blood. Conditions: read-out: WB (IL-2) IC50 (nM, Avg).
The target in the next assay is hKv1.3 (Homo sapiens, UniProt P22001). The experiment in a line: cell-based. Conditions: Kv1.3 (IWQ) IC50 (nM, Avg).
The subject of assay [2] is IFN-g secretion from T cells in human whole blood. Conditions: read-out: WB (IFNg) IC50 (nM, Avg).

Sequence of hKv1.3 (P22001 whole entry): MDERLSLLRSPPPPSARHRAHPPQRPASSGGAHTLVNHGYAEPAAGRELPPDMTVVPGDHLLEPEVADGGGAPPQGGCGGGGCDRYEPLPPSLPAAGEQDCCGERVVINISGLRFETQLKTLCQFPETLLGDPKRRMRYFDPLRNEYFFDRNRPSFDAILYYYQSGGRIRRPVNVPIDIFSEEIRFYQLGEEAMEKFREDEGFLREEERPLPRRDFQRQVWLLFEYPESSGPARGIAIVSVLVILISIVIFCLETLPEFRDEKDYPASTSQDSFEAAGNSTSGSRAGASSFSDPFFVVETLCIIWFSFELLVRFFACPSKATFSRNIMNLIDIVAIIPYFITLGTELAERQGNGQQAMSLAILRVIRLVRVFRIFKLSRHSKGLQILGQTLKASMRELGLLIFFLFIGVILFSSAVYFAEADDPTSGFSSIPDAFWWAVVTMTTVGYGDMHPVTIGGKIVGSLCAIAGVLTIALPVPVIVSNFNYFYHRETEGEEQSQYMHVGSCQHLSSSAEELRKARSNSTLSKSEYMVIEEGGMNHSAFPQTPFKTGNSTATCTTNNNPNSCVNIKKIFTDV

`CC[C@H](C)[C@@H]1NC(=O)[C@@H](NC(=O)[C@H](CO)NC(=O)[C@@H](N)CCCNC(=N)N)CSSC[C@@H](C(=O)O)NC(=O)[C@H]([C@@H](C)O)NC(=O)CNC(=O)[C@@H]2CSSC[C@@H]3NC(=O)[C@H](CCCNC(=N)N)NC(=O)[C@H](Cc4ccccc4)NC(=O)[C@H](C)NC(=O)[C@H]([C@@H](C)O)NC(=O)[C@H](CSSC[C@H](NC(=O)[C@H](Cc4ccccc4)NC(=O)[C@H](CO)NC(=O)[C@H](CC(C)C)NC(=O)[C@H](CCCNC(=N)N)NC(=O)[C@H](Cc4ccc(O)cc4)NC(=O)[C@H](CCCCN)NC(=O)[C@H](CCSC)NC(=O)[C@H](CO)NC(=O)[C@H](Cc4c[nH]cn4)NC(=O)[C@H](CCCCN)NC3=O)C(=O)N[C@@H](CCCNC(=N)N)C(=O)N[C@@H](CCCCN)C(=O)N[C@@H]([C@@H](C)O)C(=O)N2)NC(=O)[C@H](CCCNC(=N)N)NC(=O)[C@H](CO)NC(=O)[C@H](CCCCN)NC(=O)[C@@H]2CCCN2C(=O)[C@H]([C@@H](C)CC)NC(=O)[C@H]([C@@H](C)O)NC(=O)[C@H](CC(=O)O)NC1=O` [[Arg16]ShK]: the IC50 turned out to be 0.652 nM in assay [1], 0.164 nM against hKv1.3 and 0.818 nM in assay [2].

As to `CC[C@H](C)[C@@H]1NC(=O)[C@@H](NC(=O)[C@H](CO)NC(=O)[C@@H](N)CCCNC(=N)N)CSSC[C@@H](C(=O)O)NC(=O)[C@H]([C@@H](C)O)NC(=O)CNC(=O)[C@@H]2CSSC[C@@H]3NC(=O)[C@H](CCC(N)=O)NC(=O)[C@H](Cc4ccccc4)NC(=O)[C@H](C)NC(=O)[C@H]([C@@H](C)O)NC(=O)[C@H](CSSC[C@H](NC(=O)[C@H](Cc4ccccc4)NC(=O)[C@H](CO)NC(=O)[C@H](CC(C)C)NC(=O)[C@H](CCCNC(=N)N)NC(=O)[C@H](Cc4ccc(O)cc4)NC(=O)[C@H](CCCCN)NC(=O)[C@H](CCSC)NC(=O)[C@H](CO)NC(=O)[C@H](CCCNC(=N)N)NC(=O)[C@H](CCCCN)NC3=O)C(=O)N[C@@H](CCCNC(=N)N)C(=O)N[C@@H](CCCCN)C(=O)N[C@@H]([C@@H](C)O)C(=O)N2)NC(=O)[C@H](CCCNC(=N)N)NC(=O)[C@H](CO)NC(=O)[C@H](CCCCN)NC(=O)[C@@H]2CCCN2C(=O)[C@H]([C@@H](C)CC)NC(=O)[C@H]([C@@H](C)O)NC(=O)[C@H](CC(=O)O)NC1=O` [[Arg19]ShK], the half-maximal inhibitory concentration (IC50) in assay [1] is 0.039 nM; against hKv1.3, 0.1 nM; in assay [2], 0.116 nM.

For the molecule `CC[C@H](C)[C@@H]1NC(=O)[C@@H](NC(=O)[C@H](CO)NC(=O)[C@@H](N)CCCNC(=N)N)CSSC[C@@H](C(=O)O)NC(=O)[C@H]([C@@H](C)O)NC(=O)CNC(=O)[C@@H]2CSSC[C@@H]3NC(=O)[C@H](CCC(N)=O)NC(=O)[C@H](Cc4ccccc4)NC(=O)[C@H](C)NC(=O)[C@H]([C@@H](C)O)NC(=O)[C@H](CSSC[C@H](NC(=O)[C@H](Cc4ccccc4)NC(=O)[C@H](CO)NC(=O)[C@H](CC(C)C)NC(=O)[C@H](CCCNC(=N)N)NC(=O)[C@H](Cc4ccc(O)cc4)NC(=O)[C@H](CCCCN)NC(=O)[C@H](CCSC)NC(=O)[C@H](CCCNC(=N)N)NC(=O)[C@H](Cc4c[nH]cn4)NC(=O)[C@H](CCCCN)NC3=O)C(=O)N[C@@H](CCCNC(=N)N)C(=O)N[C@@H](CCCCN)C(=O)N[C@@H]([C@@H](C)O)C(=O)N2)NC(=O)[C@H](CCCNC(=N)N)NC(=O)[C@H](CO)NC(=O)[C@H](CCCCN)NC(=O)[C@@H]2CCCN2C(=O)[C@H]([C@@H](C)CC)NC(=O)[C@H]([C@@H](C)O)NC(=O)[C@H](CC(=O)O)NC1=O` [[Arg20]ShK], the results for the half-maximal inhibitory concentration (IC50) (in assay [1]; against hKv1.3; in assay [2]) were 36.9 nM, 3.84 nM and 31.3 nM, respectively.

For `CC[C@H](C)[C@@H]1NC(=O)[C@@H](NC(=O)[C@H](CO)NC(=O)[C@@H](N)CCCNC(=N)N)CSSC[C@@H](C(=O)O)NC(=O)[C@H]([C@@H](C)O)NC(=O)CNC(=O)[C@@H]2CSSC[C@@H]3NC(=O)[C@H](CCC(N)=O)NC(=O)[C@H](Cc4ccccc4)NC(=O)[C@H](C)NC(=O)[C@H]([C@@H](C)O)NC(=O)[C@H](CSSC[C@H](NC(=O)[C@H](Cc4ccccc4)NC(=O)[C@H](CO)NC(=O)[C@H](CC(C)C)NC(=O)[C@H](CCCNC(=N)N)NC(=O)[C@H](Cc4ccc(O)cc4)NC(=O)[C@H](CCCCN)NC(=O)[C@H](CCCNC(=N)N)NC(=O)[C@H](CO)NC(=O)[C@H](Cc4c[nH]cn4)NC(=O)[C@H](CCCCN)NC3=O)C(=O)N[C@@H](CCCNC(=N)N)C(=O)N[C@@H](CCCCN)C(=O)N[C@@H]([C@@H](C)O)C(=O)N2)NC(=O)[C@H](CCCNC(=N)N)NC(=O)[C@H](CO)NC(=O)[C@H](CCCCN)NC(=O)[C@@H]2CCCN2C(=O)[C@H]([C@@H](C)CC)NC(=O)[C@H]([C@@H](C)O)NC(=O)[C@H](CC(=O)O)NC1=O` [[Arg21]ShK], the figures for the IC50 (in assay [1]; against hKv1.3; in assay [2]) were 1.76 nM, 0.283 nM and 4.66 nM, respectively.

With `CC[C@H](C)[C@@H]1NC(=O)[C@@H](NC(=O)[C@H](CO)NC(=O)[C@@H](N)CCCNC(=N)N)CSSC[C@@H](C(=O)O)NC(=O)[C@H]([C@@H](C)O)NC(=O)CNC(=O)[C@@H]2CSSC[C@@H]3NC(=O)[C@H](CCC(N)=O)NC(=O)[C@H](Cc4ccccc4)NC(=O)[C@H](C)NC(=O)[C@H]([C@@H](C)O)NC(=O)[C@H](CSSC[C@H](NC(=O)[C@H](Cc4ccccc4)NC(=O)[C@H](CO)NC(=O)[C@H](CCCNC(=N)N)NC(=O)[C@H](CCCNC(=N)N)NC(=O)[C@H](Cc4ccc(O)cc4)NC(=O)[C@H](CCCCN)NC(=O)[C@H](CCSC)NC(=O)[C@H](CO)NC(=O)[C@H](Cc4c[nH]cn4)NC(=O)[C@H](CCCCN)NC3=O)C(=O)N[C@@H](CCCNC(=N)N)C(=O)N[C@@H](CCCCN)C(=O)N[C@@H]([C@@H](C)O)C(=O)N2)NC(=O)[C@H](CCCNC(=N)N)NC(=O)[C@H](CO)NC(=O)[C@H](CCCCN)NC(=O)[C@@H]2CCCN2C(=O)[C@H]([C@@H](C)CC)NC(=O)[C@H]([C@@H](C)O)NC(=O)[C@H](CC(=O)O)NC1=O` [[Arg25]ShK], the half-maximal inhibitory concentration (IC50) was 0.095 nM in assay [1], 0.107 nM at hKv1.3 and 0.2 nM in assay [2].

With `CC[C@H](C)[C@@H]1NC(=O)[C@@H](NC(=O)[C@H](CO)NC(=O)[C@@H](N)CCCNC(=N)N)CSSC[C@@H](C(=O)O)NC(=O)[C@H]([C@@H](C)O)NC(=O)CNC(=O)[C@@H]2CSSC[C@@H]3NC(=O)[C@H](CCC(N)=O)NC(=O)[C@H](Cc4ccccc4)NC(=O)[C@H](C)NC(=O)[C@H]([C@@H](C)O)NC(=O)[C@H](CSSC[C@H](NC(=O)[C@H](Cc4ccccc4)NC(=O)[C@H](CCCNC(=N)N)NC(=O)[C@H](CC(C)C)NC(=O)[C@H](CCCNC(=N)N)NC(=O)[C@H](Cc4ccc(O)cc4)NC(=O)[C@H](CCCCN)NC(=O)[C@H](CCSC)NC(=O)[C@H](CO)NC(=O)[C@H](Cc4c[nH]cn4)NC(=O)[C@H](CCCCN)NC3=O)C(=O)N[C@@H](CCCNC(=N)N)C(=O)N[C@@H](CCCCN)C(=O)N[C@@H]([C@@H](C)O)C(=O)N2)NC(=O)[C@H](CCCNC(=N)N)NC(=O)[C@H](CO)NC(=O)[C@H](CCCCN)NC(=O)[C@@H]2CCCN2C(=O)[C@H]([C@@H](C)CC)NC(=O)[C@H]([C@@H](C)O)NC(=O)[C@H](CC(=O)O)NC1=O` [[Arg26]ShK], the IC50 in assay [1] was determined as 0.208 nM; at hKv1.3, 0.279 nM; in assay [2], 0.572 nM.

For the molecule `CC[C@H](C)[C@@H]1NC(=O)[C@@H](NC(=O)[C@H](CO)NC(=O)[C@@H](N)CCCNC(=N)N)CSSC[C@@H](C(=O)O)NC(=O)[C@H]([C@@H](C)O)NC(=O)CNC(=O)[C@@H]2CSSC[C@@H]3NC(=O)[C@H](CCC(N)=O)NC(=O)[C@H](Cc4ccccc4)NC(=O)[C@H](C)NC(=O)[C@H]([C@@H](C)O)NC(=O)[C@H](CSSC[C@H](NC(=O)[C@H](CCCNC(=N)N)NC(=O)[C@H](CO)NC(=O)[C@H](CC(C)C)NC(=O)[C@H](CCCNC(=N)N)NC(=O)[C@H](Cc4ccc(O)cc4)NC(=O)[C@H](CCCCN)NC(=O)[C@H](CCSC)NC(=O)[C@H](CO)NC(=O)[C@H](Cc4c[nH]cn4)NC(=O)[C@H](CCCCN)NC3=O)C(=O)N[C@@H](CCCNC(=N)N)C(=O)N[C@@H](CCCCN)C(=O)N[C@@H]([C@@H](C)O)C(=O)N2)NC(=O)[C@H](CCCNC(=N)N)NC(=O)[C@H](CO)NC(=O)[C@H](CCCCN)NC(=O)[C@@H]2CCCN2C(=O)[C@H]([C@@H](C)CC)NC(=O)[C@H]([C@@H](C)O)NC(=O)[C@H](CC(=O)O)NC1=O` [[Arg27]ShK], the half-maximal inhibitory concentration (IC50) in assay [1] came out at 13 nM; on hKv1.3 it was 100 nM; in assay [2] it was 59.7 nM.

Regarding `CC[C@H](C)[C@@H]1NC(=O)[C@@H](NC(=O)[C@H](CO)NC(=O)[C@@H](N)CCCNC(=N)N)CSSC[C@@H](C(=O)O)NC(=O)[C@H]([C@@H](C)O)NC(=O)CNC(=O)[C@@H]2CSSC[C@@H]3NC(=O)[C@H](CCC(N)=O)NC(=O)[C@H](Cc4ccccc4)NC(=O)[C@H](C)NC(=O)[C@H]([C@@H](C)O)NC(=O)[C@H](CSSC[C@H](NC(=O)[C@H](Cc4ccccc4)NC(=O)[C@H](CO)NC(=O)[C@H](CC(C)C)NC(=O)[C@H](CCCNC(=N)N)NC(=O)[C@H](Cc4ccc(O)cc4)NC(=O)[C@H](CCCCN)NC(=O)[C@H](CCSC)NC(=O)[C@H](CO)NC(=O)[C@H](Cc4c[nH]cn4)NC(=O)[C@H](CCCCN)NC3=O)C(=O)N[C@@H](CCCNC(=N)N)C(=O)N[C@@H](CCCNC(=N)N)C(=O)N[C@@H]([C@@H](C)O)C(=O)N2)NC(=O)[C@H](CCCNC(=N)N)NC(=O)[C@H](CO)NC(=O)[C@H](CCCCN)NC(=O)[C@@H]2CCCN2C(=O)[C@H]([C@@H](C)CC)NC(=O)[C@H]([C@@H](C)O)NC(=O)[C@H](CC(=O)O)NC1=O` [[Arg30]ShK], the IC50 in assay [1] turned out to be 0.014 nM; against hKv1.3, 0.04 nM; in assay [2] it was 0.027 nM.
